{"source": "paper PMC5049785", "about": "“Characterization of Novel Antimalarial Compound ACT-451840: Preclinical Assessment of Activity and Dose–Efficacy Modeling” (PLoS Medicine, 2016)", "key": {"[1]": {"test_system": "P. falciparum NF54 strain", "experiment": "[3H]-hypoxanthine incorporation assay, NF54", "format": "cell-based, Plasmodium falciparum", "conditions": "Plasmodium falciparum", "procedure": "In vitro time-, stage-, and concentration-dependent effects were assessed using pyrimethamine as a stage-specific and slow-acting control, as described elsewhere."}, "[2]": {"test_system": "P. falciparum K1 (Thailand)", "experiment": "[3H]-hypoxanthine incorporation assay, K1", "format": "cell-based, Plasmodium falciparum", "conditions": "Plasmodium falciparum"}, "[3]": {"test_system": "P. falciparum W2 (Vietnam)", "experiment": "[3H]-hypoxanthine incorporation assay, W2", "format": "cell-based, Plasmodium falciparum", "conditions": "Plasmodium falciparum"}, "[4]": {"test_system": "P. falciparum 7G8 (Brazil)", "experiment": "[3H]-hypoxanthine incorporation assay, 7G8", "format": "cell-based, Plasmodium falciparum", "conditions": "Plasmodium falciparum"}, "[5]": {"test_system": "P. falciparum TM90C2A (Thailand)", "experiment": "[3H]-hypoxanthine incorporation assay, TM90C2A", "format": "cell-based, Plasmodium falciparum", "conditions": "Plasmodium falciparum"}, "[6]": {"test_system": "P. falciparum V1/S (Vietnam)", "experiment": "[3H]-hypoxanthine incorporation assay, V1/S", "format": "cell-based, Plasmodium falciparum", "conditions": "Plasmodium falciparum, read-out: 50% inhibitory concentration (IC50)"}, "[7]": {"test_system": "P. falciparum D6 (Sierra Leone)", "experiment": "[3H]-hypoxanthine incorporation assay, D6", "format": "cell-based, Plasmodium falciparum", "conditions": "Plasmodium falciparum"}, "[8]": {"test_system": "Cam3.II^C580Y parasites", "experiment": "microbe, parasite or virus in culture", "format": "cell-based, P. falciparum", "conditions": "for IC50: Plasmodium falciparum, 72 h", "procedure": "(§1) Parasites were cultured at Columbia University Medical Center (New York, USA) as previously described (1). Cam3.II and V1/S parasites, which had been genetically engineered to express K13 wild-type or K13 C580Y were seeded in a 96-well plate at 0.2% parasitemia and 1% hematocrit (2). […] Parasites were then stained with SYBR Green I (Invitrogen) and MitoTracker Deep Red (ThermoFisher Scientific) for 20 minutes at 37 °C (3). Stained parasites were detected using a BD Accuri 6 Flow Cytometer, and analyzed using FlowJo Software. IC50 values were determined by nonlinear regression using GraphPad Prism 6.0. For statistical analyses, Student’s t-tests were performed, and significance was set at P < 0.05.\n(§2) Values indicate mean ± SEM, shown in nM. Significance determined by Student's t-test against parental lines."}, "[9]": {"test_system": "Cam3.II^rev parasites (K13 wild-type)", "experiment": "microbe, parasite or virus in culture", "format": "cell-based, P. falciparum", "conditions": "for IC50: Plasmodium falciparum, 72 h", "procedure": "as §1, §2"}, "[10]": {"test_system": "V1/S parasites (K13 wild-type)", "experiment": "microbe, parasite or virus in culture", "format": "cell-based, P. falciparum", "procedure": "as §1, §2"}, "[11]": {"test_system": "V1/S^C580Y parasites", "experiment": "microbe, parasite or virus in culture", "format": "cell-based, P. falciparum", "procedure": "as §1, §2"}, "[12]": {"test_system": "P. falciparum clinical isolates (Papua, Indonesia)", "experiment": "Ex vivo drug susceptibility, P. falciparum clinical isolates", "format": "cell-based, Plasmodium falciparum", "conditions": "Plasmodium falciparum, read-out: median IC50", "procedure": "(§3) […]. Thick blood films made from each well were stained with 5% Giemsa solution for 30 min and examined microscopically. The number of schizonts per 200 asexual-stage parasites was determined for each drug concentration and normalized to the control well."}, "[13]": {"test_system": "P. vivax clinical isolates (Papua, Indonesia)", "experiment": "Ex vivo drug susceptibility, P. vivax clinical isolates", "format": "cell-based, Plasmodium vivax", "conditions": "Plasmodium vivax, read-out: median IC50", "procedure": "as §3"}, "[14]": {"test_system": "P. falciparum PfNF54^0230/N3", "experiment": "In vivo efficacy, P. falciparum mouse model (GSK)", "conditions": "oral quadruple-dose regimen, once a day", "procedure": "In vivo efficacy against P. falciparum was conducted at GSK according to the standard assay previously described. Female NODscidIL2Rγnull mice were engrafted with human erythrocytes and infected with the isolate P. falciparum PfNF54^0230/N3, a strain developed at GSK for growth in engrafted mice. […] Blood samples were collected on Days 3, 4, 5, 6, and 7 (n = 3 per time point) for parasitemia measurement by flow cytometry. Similarly, blood samples were collected at 0.5, 1, 2, 4, 6, 8, 12, 24, and 48 h after a single administration of 4.7 mg/kg of ACT-451840 to a parallel group of three P. falciparum-infected mice for PK parameters determination. Results are expressed exclusively as antimalarial activity in the P. falciparum murine model."}, "[15]": {"test_system": "P. falciparum strain 3D7 (MR4)", "design": "method as in PMID 16735432", "conditions": "10 x IC50; cited from earlier work"}, "[16]": {"test_system": "GFP-transfected P. berghei ANKA strain", "experiment": "In vivo efficacy, P. berghei mouse model", "design": "species or system Plasmodium berghei in female NMRI mice", "conditions": "100 mg/kg quadruple-dose regimen", "procedure": "In vivo efficacy against P. berghei was conducted at the Swiss TPH as previously described, with the modification that female NMRI mice from Harlan (Horst, The Netherlands) (n = 3) were infected with a GFP-transfected P. berghei ANKA strain (kindly donated by A. P. Waters and C. J. Janse, Leiden University Medical Center, The Netherlands) and parasitemia was determined using standard flow cytometry techniques. ACT-451840 was dissolved or suspended in corn oil before dosing and administered 24 h after infection (single-dose regimen) or 24, 48, and 72 h after infection (triple-dose regimen). With the single-dose regimen, blood was collected on Day 3 (72 h after infection). Samples for the triple-dose regimens were collected on Day 4 (96 h after infection). Antimalarial activity was calculated as the difference between the mean percent parasitemia for the control and treated groups expressed as a percent relative to the control group, consisting of five mice. Control mice were euthanized on Day 4 in order to prevent death typically occurring on Day 6. For the consistency in PK/PD modeling, Day 5 instead of Day 6 was considered the day of death, because treated animals were always euthanized one day before their natural death for animal welfare reasons. Animals were considered cured if there were no detectable parasites on Day 30 post-infection. To confirm the reliability of this assumption, blood from the surviving mice in curative experiments was inoculated into uninfected mice, and no parasitemia developed in these mice even after 30 d. The antimalarial efficacy is defined either as antimalarial activity or as survival: the two readouts of the P. berghei murine model."}, "[17]": {"conditions": "P. falciparum clinical isolates, n = 27 (closed symbols)"}, "[18]": {"conditions": "P. vivax clinical isolates, n = 34 (open symbols)"}, "[19]": {"conditions": "K1, read-out: 50% inhibitory concentration (IC50)"}, "[20]": {"conditions": "7G8, read-out: 50% inhibitory concentration (IC50)"}, "[21]": {"conditions": "read-out: 50% inhibitory concentration (IC50)"}, "[22]": {"conditions": "D6, read-out: 50% inhibitory concentration (IC50)"}}, "note": "Like-named read-outs stand apart in the source and are kept apart here.", "data": [{"compound": "CCc1nc(N)nc(N)c1-c1ccc(Cl)cc1", "note": "[Pyrimethamine, pyrimethamine]", "values": [{"measurement": "IC50", "setting": "[1]; read-out: 50% inhibitory concentration (IC50), NF54, no resistance, mean ± SD, n = 3", "result": "0.018 ± 0.0008", "unit": "µM"}, {"measurement": "IC50", "setting": "[2]; read-out: 50% inhibitory concentration (IC50), K1, resistance CQ, SUL, PYR, CYC, mean ± SD", "result": 10.1, "unit": "µM"}, {"measurement": "IC50", "setting": "[3]; read-out: 50% inhibitory concentration (IC50), W2, resistance CQ, SUL, PYR, CYC, mean ± SD", "result": 13.9, "unit": "µM"}, {"measurement": "IC50", "setting": "[4]; read-out: 50% inhibitory concentration (IC50), 7G8, resistance CQ, PYR, CYC, mean ± SD", "result": 10.5, "unit": "µM"}, {"measurement": "IC50", "setting": "[5]; read-out: 50% inhibitory concentration (IC50), resistance CQ, PYR, MFQ, CYC, mean ± SD", "result": 19.2, "unit": "µM"}, {"measurement": "IC50", "setting": "[6]; V1/S, resistance CQ, SUL, PYR, CYC, mean ± SD", "result": 21.9, "unit": "µM"}, {"measurement": "IC50", "setting": "[7]; read-out: 50% inhibitory concentration (IC50), D6, resistance MFQ, mean ± SD", "result": "0.0054 ± 0.0013", "unit": "µM"}]}, {"compound": "OC(c1cc(C(F)(F)F)nc2c(C(F)(F)F)cccc12)C1CCCCN1", "note": "(stereo not shown) [Mefloquine, mefloquine]", "values": [{"measurement": "IC50 fold change", "setting": "[8]; Cam3.II^C580Y versus Cam3.II^rev", "result": 1.2}, {"measurement": "IC50", "setting": "[8]", "result": "0.014 ± 0.0009", "unit": "µM"}, {"measurement": "IC50 fold change", "setting": "[9]; Cam3.II^rev (parental reference line)", "result": 1.0}, {"measurement": "IC50", "setting": "[9]", "result": "0.012 ± 0.0015", "unit": "µM"}, {"measurement": "IC50", "setting": "[10]; Plasmodium falciparum, 72 h", "result": "0.0013 ± 0.0004", "unit": "µM"}, {"measurement": "IC50 fold change", "setting": "[10]; V1/S (parental reference line)", "result": 1.0}, {"measurement": "IC50", "setting": "[11]; Plasmodium falciparum, 72 h", "result": "0.0008 ± 0.0003", "unit": "µM"}, {"measurement": "IC50 fold change", "setting": "[11]; V1/S^C580Y versus V1/S", "result": 0.6}, {"measurement": "IC50", "setting": "[12]; [17]", "result": 0.0134, "unit": "µM"}, {"measurement": "IC50", "setting": "[13]; [18]", "result": 0.0152, "unit": "µM"}]}, {"compound": "Clc1ccc2c(N3CCN(CCCN4CCN(c5ccnc6cc(Cl)ccc56)CC4)CC3)ccnc2c1", "note": "[Piperaquine]", "values": [{"measurement": "IC50", "setting": "[12]; [17]", "result": 0.025, "unit": "µM"}, {"measurement": "IC50", "setting": "[13]; [18]", "result": 0.0148, "unit": "µM"}]}, {"compound": "CCN(CC)CCCC(C)Nc1ccnc2cc(Cl)ccc12", "note": "(stereo not shown) [Chloroquine, chloroquine]", "values": [{"measurement": "IC50", "setting": "[1]; NF54, read-out: 50% inhibitory concentration (IC50)", "result": "0.011 ± 0.0021", "unit": "µM"}, {"measurement": "IC50", "setting": "[2]; [19]", "result": "0.303 ± 0.037", "unit": "µM"}, {"measurement": "IC50", "setting": "[3]; W2, read-out: 50% inhibitory concentration (IC50)", "result": "0.326 ± 0.038", "unit": "µM"}, {"measurement": "IC50", "setting": "[4]; [20]", "result": "0.137 ± 0.021", "unit": "µM"}, {"measurement": "IC50", "setting": "[5]; [21]", "result": "0.174 ± 0.019", "unit": "µM"}, {"measurement": "IC50", "setting": "[6]", "result": "0.458 ± 0.066", "unit": "µM"}, {"measurement": "IC50", "setting": "[7]; [22]", "result": "0.016 ± 0.0012", "unit": "µM"}, {"measurement": "IC50", "setting": "[12]", "result": 0.101, "unit": "µM"}, {"measurement": "IC50", "setting": "[13]", "result": 0.0439, "unit": "µM"}, {"measurement": "effective dose resulting in 90% antimalarial activity (ED90)", "setting": "[14]", "result": 4.9, "unit": "mg/kg"}]}, {"compound": "O=C1C(O)=C([C@H]2CC[C@H](c3ccc(Cl)cc3)CC2)C(=O)c2ccccc21", "note": "[atovaquone]", "values": [{"measurement": "lag phase in the killing curve", "setting": "[15]", "result": 48, "unit": "h"}]}, {"compound": "C[C@H]1[C@H](OC(=O)CCC(=O)O)O[C@@H]2O[C@@]3(C)CC[C@H]4[C@H](C)CC[C@@H]1[C@@]24OO3", "note": "[Artesunate, artesunate]", "values": [{"measurement": "IC50", "setting": "[2]; [19]", "result": "0.0027 ± 0.0004", "unit": "µM"}, {"measurement": "IC50", "setting": "[4]; [20]", "result": "0.0018 ± 0.0002", "unit": "µM"}, {"measurement": "IC50", "setting": "[5]; [21]", "result": "0.0046 ± 0.0017", "unit": "µM"}, {"measurement": "IC50", "setting": "[6]", "result": "0.0032 ± 0.0005", "unit": "µM"}, {"measurement": "IC50", "setting": "[7]; [22]", "result": "0.0071 ± 0.0019", "unit": "µM"}, {"measurement": "IC50", "setting": "[8]", "result": "0.0066 ± 0.0003", "unit": "µM"}, {"measurement": "IC50", "setting": "[9]", "result": "0.0067 ± 0.0007", "unit": "µM"}, {"measurement": "IC50", "setting": "[12]; [17]", "result": 0.0026, "unit": "µM"}, {"measurement": "IC50", "setting": "[13]; [18]", "result": 0.0029, "unit": "µM"}, {"measurement": "infected mice cured", "setting": "[16]", "result": 50, "unit": "%"}]}, {"compound": "C[C@@H]1CC[C@H]2[C@@H](C)C(=O)O[C@@H]3O[C@@]4(C)CC[C@@H]1[C@]32OO4", "note": "[artemisinin]", "values": [{"measurement": "parasite clearance time to kill 99.9% of the initial population", "setting": "[15]", "result": "less than 24 h"}]}, {"compound": "CCN(CC)Cc1cc(Nc2ccnc3cc(Cl)ccc23)ccc1O", "note": "[Amodiaquine]", "values": [{"measurement": "IC50", "setting": "[12]; [17]", "result": 0.0168, "unit": "µM"}, {"measurement": "IC50", "setting": "[13]; [18]", "result": 0.0123, "unit": "µM"}]}]}
